The values that follow come from the supplement of paper PMC10331698.

± gives the standard deviation of the averaged measurements.

Common to all, as to experiment: level (log10 ratio to DMSO vehicle control); higher = higher biomarker level / cell amount than vehicle control
Common to all, as to conditions: in DMSO

Compound in assay [1]: O=C(O)C(F)(F)C(F)(F)C(F)(F)C(F)(F)C(F)(F)C(F)(F)C(F)(F)F [Ammonium perfluorooctanoate]
As to the method: (§1)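 BioMAP Diversity Plus panel of 12 human primary cell co-culture systems (3C, 4H, LPS, SAg, BT, BF4T, BE3C, CASM3C, HDF3CGF, KF3CT, MyoF, Mphg). Compounds were added 1 h before stimulation and left for 24 h (MyoF 48 h; BT 72 h for soluble read-outs or 6 d for IgG). Biomarkers were read by ELISA, cytotoxicity by SRB, PBMC viability and proliferation by Alamar Blue. Each well value was divided by the mean of 8 DMSO control wells on the same plate and log10 transformed; duplicate blinded samples were tested at 4 concentrations.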

Compound in assay [2]: O=S(=O)(O)CCC(F)(F)C(F)(F)C(F)(F)C(F)(F)F [4:2 Fluorotelomer sulfonic acid]
On the procedure: as §1

Compound in assay [3]: C=CC(=O)OCCC(F)(F)C(F)(F)C(F)(F)C(F)(F)C(F)(F)C(F)(F)C(F)(F)C(F)(F)F [8:2 Fluorotelomer acrylate]
As to the method: as §1

Compound in assay [4]: O=C(CC(=O)C(F)(F)C(F)(F)C(F)(F)F)c1cccs1 [(Perfluorobutyryl)-2-thenoylmethane]
On the procedure: as §1

Compound in assay [5]: O=C(Cl)C(F)(F)C(F)(F)C(F)(F)C(=O)Cl [Hexafluoroglutaryl chloride]
On the procedure:
as §1

Compound in assay [6]: O=P(O)(O)CCC(F)(F)C(F)(F)C(F)(F)C(F)(F)C(F)(F)C(F)(F)F [2-(Perfluorohexyl)ethylphosphonic acid]
As to the method:
as §1

Compound in assay [7]: OCCCCC(F)(F)C(F)(F)C(F)(F)C(F)(F)F [4:4 Fluorotelomer alcohol]
On the procedure:
as §1

Take 4H:CD106/VCAM-1: the “level (log10)” value in assay [1] (6700 nM) is 0.0225 ± 0.0021; in assay [1] (20000 nM), 0.036 ± 0.0085; in assay [1] (60000 nM), 0.0215 ± 0.026; in assay [2] (6700 nM) it was -0.039 ± 0.037; in assay [2] (20000 nM), 0.014 ± 0.0057; in assay [2] (60000 nM), -0.0035 ± 0.023. For the same test system, the “level (log10)” value in assay [3] (6700 nM) is -0.0045 ± 0.035; in assay [3] (20000 nM) it was -0.023 ± 0.051; in assay [3] (60000 nM) it was -0.0255 ± 0.026; in assay [4] (6700 nM), -0.009 ± 0.0071; in assay [4] (20000 nM), -0.234 ± 0.04; in assay [5] (6700 nM) it was 0.0015 ± 0.0092. The “level (log10)” value was -0.005 ± 0.021 in assay [5] (20000 nM); 0.001 ± 0.011 in assay [5] (60000 nM); 0.0205 ± 0.0064 in assay [6] (6700 nM); 0.025 ± 0.0085 in assay [6] (20000 nM); -0.01 ± 0.0028 in assay [6] (60000 nM); 0 ± 0.0057 in assay [7] (6700 nM). In addition, the entries for the “level (log10)” value in assay [7] (20000 nM) and in assay [7] (60000 nM) were -0.01 ± 0.0028 and 0.005 ± 0.0028, respectively.

For the test system 3C:CXCL8/IL-8, the “level (log10)” value in assay [1] (6700 nM) is 0.0015 ± 0.0021; in assay [1] (20000 nM), 0.023 ± 0.027; in assay [1] (60000 nM) it was 0.085 ± 0.065; in assay [2] (6700 nM), -0.0175 ± 0.04; in assay [2] (20000 nM) it was -0.011 ± 0.072; in assay [2] (60000 nM), 0.035 ± 0.1. Moreover, the “level (log10)” value in assay [3] (6700 nM) was 0.009 ± 0.0057; in assay [3] (20000 nM), 0.012 ± 0.035; in assay [3] (60000 nM), 0.0555 ± 0.049; in assay [4] (6700 nM) it was -0.112 ± 0.0035; in assay [4] (20000 nM) it was -0.091 ± 0.014; in assay [5] (6700 nM) it was -0.007 ± 0.023. In addition, the “level (log10)” value was -0.0075 ± 0.029 in assay [5] (20000 nM); 0.047 ± 0.048 in assay [5] (60000 nM); -0.0115 ± 0.05 in assay [6] (6700 nM); -0.0035 ± 0.0021 in assay [6] (20000 nM); 0.0545 ± 0.03 in assay [6] (60000 nM); -0.029 ± 0.0085 in assay [7] (6700 nM). In addition, the figures for the “level (log10)” value in assay [7] (20000 nM) and in assay [7] (60000 nM) were -0.031 ± 0.0057 and 0.0005 ± 0.0078, respectively.

Regarding SAg:CD69, the “level (log10)” value in assay [1] (6700 nM) was -0.0115 ± 0.00071; in assay [1] (20000 nM) it was -0.026 ± 0.0014; in assay [1] (60000 nM), -0.062 ± 0.0085; in assay [2] (6700 nM), -0.023 ± 0.027; in assay [2] (20000 nM), -0.0165 ± 0.028; in assay [2] (60000 nM) it was -0.028 ± 0.037. In addition, the “level (log10)” value is -0.01 ± 0.027 in assay [3] (6700 nM); -0.025 ± 0.016 in assay [3] (20000 nM); -0.0295 ± 0.032 in assay [3] (60000 nM); -0.128 ± 0.02 in assay [4] (6700 nM); -0.166 ± 0.0085 in assay [4] (20000 nM); -0.009 ± 0.021 in assay [5] (6700 nM). Besides, the “level (log10)” value in assay [5] (20000 nM) is -0.02 ± 0.018; in assay [5] (60000 nM), -0.015 ± 0.0028; in assay [6] (6700 nM) it was -0.004 ± 0.025; in assay [6] (20000 nM) it was -0.008 ± 0.02; in assay [6] (60000 nM), 0.009 ± 0.03; in assay [7] (6700 nM), 0.009 ± 0.0057. For the same test system, the “level (log10)” value in assay [7] (20000 nM) is -0.002 ± 0.0028; in assay [7] (60000 nM), 0.001 ± 0.02.

Consider BF4T:MMP-1, for which the “level (log10)” value in assay [1] (6700 nM) was -0.0025 ± 0.016; in assay [1] (20000 nM) it was -0.004 ± 0.014; in assay [1] (60000 nM) it was 0.0105 ± 0.012; in assay [2] (6700 nM), -0.002 ± 0.017; in assay [2] (20000 nM), -0.0115 ± 0.005; in assay [2] (60000 nM) it was 0.0055 ± 0.0092. Also, the “level (log10)” value in assay [3] (6700 nM) is 0.002 ± 0.0057; in assay [3] (20000 nM), 0.0025 ± 0.0021; in assay [3] (60000 nM), 0.0175 ± 0.022; in assay [4] (6700 nM), -0.02 ± 0.011; in assay [4] (20000 nM), -0.0785 ± 0.0092; in assay [5] (6700 nM), -0.0125 ± 0.018. The “level (log10)” value in assay [5] (20000 nM) was 0.003 ± 0.0028; in assay [5] (60000 nM), 0 ± 0.017; in assay [6] (6700 nM), -0.0045 ± 0.0092; in assay [6] (20000 nM), -0.004; in assay [6] (60000 nM), 0.0035 ± 0.026; in assay [7] (6700 nM), 0.0075 ± 0.018. Moreover, the “level (log10)” value was determined as 0.0045 ± 0.025 in assay [7] (20000 nM) and 0.009 ± 0.03 in assay [7] (60000 nM).

For BE3C:CXCL11/I-TAC, the “level (log10)” value in assay [1] (6700 nM) was 0.0095 ± 0.018; in assay [1] (20000 nM) it was 0.0125 ± 0.019; in assay [1] (60000 nM), -0.0295 ± 0.0035; in assay [2] (6700 nM), 0.008 ± 0.0042; in assay [2] (20000 nM) it was 0.043 ± 0.033; in assay [2] (60000 nM), 0.0485 ± 0.0092. Further, the “level (log10)” value in assay [3] (6700 nM) was -0.019 ± 0.011; in assay [3] (20000 nM), -0.0115 ± 0.013; in assay [3] (60000 nM) it was 0.003 ± 0.011; in assay [4] (6700 nM), -0.01; in assay [4] (20000 nM) it was -0.28 ± 0.011; in assay [5] (6700 nM), 0.0285 ± 0.015. In addition, the “level (log10)” value in assay [5] (20000 nM) was 0.0105 ± 0.046; in assay [5] (60000 nM), 0.021 ± 0.031; in assay [6] (6700 nM), -0.0205 ± 0.0078; in assay [6] (20000 nM), -0.0235 ± 0.0064; in assay [6] (60000 nM) it was -0.0415 ± 0.032; in assay [7] (6700 nM) it was -0.013 ± 0.0028. In addition, the “level (log10)” value in assay [7] (20000 nM) was -0.0125 ± 0.00071; in assay [7] (60000 nM) it was -0.0025 ± 0.015.

For the test system BF4T:CCL26/Eotaxin-3, the “level (log10)” value is 0.004 ± 0.02 in assay [1] (6700 nM); -0.044 ± 0.025 in assay [1] (20000 nM); -0.086 in assay [1] (60000 nM); -0.002 ± 0.052 in assay [2] (6700 nM); -0.0065 ± 0.029 in assay [2] (20000 nM); 0.056 ± 0.047 in assay [2] (60000 nM). Moreover, the “level (log10)” value in assay [3] (6700 nM) is -0.0555 ± 0.012; in assay [3] (20000 nM), -0.0785 ± 0.079; in assay [3] (60000 nM), -0.098 ± 0.12; in assay [4] (6700 nM) it was -0.181 ± 0.0035; in assay [4] (20000 nM) it was -0.464 ± 0.018; in assay [5] (6700 nM), 0.023 ± 0.031. In addition, the “level (log10)” value in assay [5] (20000 nM) is 0.017 ± 0.033; in assay [5] (60000 nM), 0.035 ± 0.045; in assay [6] (6700 nM), -0.0135 ± 0.022; in assay [6] (20000 nM), -0.04 ± 0.0099; in assay [6] (60000 nM), -0.034 ± 0.079; in assay [7] (6700 nM), -0.0205 ± 0.046. Further, the “level (log10)” value in assay [7] (20000 nM) is -0.0015 ± 0.015; in assay [7] (60000 nM) it was 0.0105 ± 0.047.

In the case of BE3C:CD87/uPAR, the “level (log10)” value was 0.0105 ± 0.022 in assay [1] (6700 nM); 0.0315 ± 0.0035 in assay [1] (20000 nM); 0.0125 ± 0.023 in assay [1] (60000 nM); 0.002 ± 0.02 in assay [2] (6700 nM); -0.004 ± 0.021 in assay [2] (20000 nM); -0.007 ± 0.0071 in assay [2] (60000 nM). Besides, the “level (log10)” value in assay [3] (6700 nM) was 0.03 ± 0.041; in assay [3] (20000 nM), 0.027 ± 0.035; in assay [3] (60000 nM), 0.0595 ± 0.049; in assay [4] (6700 nM) it was 0.013 ± 0.0028; in assay [4] (20000 nM), -0.007 ± 0.0014; in assay [5] (6700 nM), -0.0055 ± 0.0021. The “level (log10)” value in assay [5] (20000 nM) is -0.009 ± 0.0028; in assay [5] (60000 nM), 0.011 ± 0.0085; in assay [6] (6700 nM), -0.035 ± 0.065; in assay [6] (20000 nM), -0.029 ± 0.047; in assay [6] (60000 nM), -0.0125 ± 0.12; in assay [7] (6700 nM) it was 0.0075 ± 0.03. The “level (log10)” value in assay [7] (20000 nM) was -0.025 ± 0.016; in assay [7] (60000 nM), 0.0065 ± 0.033.
